For data set [1] the following is noted: rcm bond.
Data set [2] has as its target T1, BACE1 enzyme (Homo sapiens, UniProt P56817).
T1 construct: endogenous in cells; washed 48,000 x g membrane pellet / cell homogenate
Briefly: Radioligand displacement assay with a radiolabeled BACE inhibitor. Type of data set: binding. As to conditions: HEK293-9B.A1 cell homogenate overexpressing BACE1, 1 nM radioligand, pH 5.0, 1.5 hr at 25° C.; read-out: Activity Rating (activity based on IC50 values). The source says: There are a number of methods by which inhibitors of the BACE enzyme can be identified experimentally. The enzyme can be obtained from membrane samples from natural tissues or cultured cells or can be expressed recombinantly in a host cell by well known methods of molecular biology. The whole enzyme or a portion thereof can be expressed, for example, in bacterial, insect or mammalian cells to obtain a catalytically active enzyme species. The enzymatic activity and/or ligand binding capability of the enzyme can be assessed within these membrane samples, or the enzyme can be purified to varying extents. As an illustrative example, the nucleic acid sequence encoding the pro and catalytic domains of human BACE can be appended on the 5′ end with an untranslated and signal sequence from the gene for acetylcholinesterase, and on the 3′ end with a sequence encoding a poly-histidine tag. This cDNA can then be expressed in Drosophila melanogaster S2 cells in which the signal and pro sequences of the transcribed/translated protein are removed by cellular proteases and the catalytic domain, appended by a C-terminal poly-histidine tag, is secreted out into the cellular medium. The enzyme can then be purified from the culture medium by nickel affinity chromatography by methods well known to those trained in the art [Mallender, W. et al., “Characterization of recombinant, soluble beta-secretase from an insect cell expression system.” Mol. Pharmacol. 2001, 59: 619-626]. Similar strategies for expressing and purifying various forms of BACE in bacterial, mammalian and other cell types would be known to one skilled in the art. A preferred method for determining the potency of a test compound in binding to the BACE enzyme is by monitoring the displacement of a suitable radioligand.
Radioligand displacement assays with a radiolabeled BACE inhibitor (WO 2004 013098, compound 3, where the methoxy group is substituted for C(^3H)3) were carried out using standard methods (Keen, M. (1999) in Receptor Binding Techniques (Walker, J. M. ed) p. 106 Humana Press, Totowa, N.J.). The HEK293-9B.A1 cell line, which overexpresses the BACE1 enzyme, was derived from HEK293 cells (Simmons, N. L. (1990) A cultured human renal epithelioid cell line responsive to vasoactive intestinal peptide. Exp. Physiol. 75:309-19.) by RAGE™ (Harrington, J. J. et al. (2001) Creation of genome-wide protein expression libraries using random activation of gene expression. Nat. Biotechnol. 19:440-5.; U.S. Pat. Nos. 6,410,266 and 6,361,972). T225 flask cultures of HEK293-9B.A1 were grown to 80% confluency in DMEM supplemented with 2 mM L-glutamine, 10 μg/mL penicillin, 10 μg/mL streptomycin, 3 μg/mL puromycin, 100 nM methotrexate, and 10% fetal bovine serum (Invitrogen, Carlsbad, Calif.), harvested, and resuspended at 2×10^8 cells per 10 mL of lysis buffer consisting of 50 mM HEPES pH 7.0 containing a protease inhibitor cocktail of AEBSF 104 μM, aprotinin 80 nM, leupeptin 2 μM, bestatin 4 μM, pepstatin A 1.5 μM, and E-64 1.4 μM (0.1% of protease inhibitor cocktail P8340, Sigma-Aldrich, St. Louis, Mo.) at 4° C. The resuspended cells were homogenized using a Polytron (Brinkman, Westbury, N.Y.) at setting 6 for 10 sec., then centrifuged at 48,000×g for 10 min. The resulting pellet was washed by repeating the resuspension, homogenization and centrifugation steps. The final pellet was resuspended in buffer at 4° C. to yield a total protein concentration of 5 mg/mL, then aliquots were frozen in liquid nitrogen for further storage at −70° C. Immediately before carrying out a binding assay, an aliquot of cell homogenate was thawed and diluted to a concentration of 100 μg/mL in assay buffer consisting of 50 mM HEPES pH 5.0 and 0.1% CHAPSO. […]

For data set [3] the following is noted: from (S)-N-((2S,3R)-1-(3,5-difluorophenyl)-3-hydroxy-4-(5-methyl-2-(pent-4-enyl)benzylamino)butan-2-yl)-2-(N-methylpentylsulfonamido) pent-4-enamide; rcm bond; 16-membered ring; Hoveyda-Grubbs (20 mol%); 1,2-dichloroethane; 6.3 mM; 60.0 °C.

Consider 16 compounds from patent publication US7772221B2, “Diaminopropane derived macrocycles as inhibitors of β amyloid production” (Bristol-Meyers Squibb Company, priority 2007, dated 2010).

Where two headings read alike, the source gives them in different places. A value given as a limit tells only on which side of the number the result lay.

T1 sequence (P56817 46-501): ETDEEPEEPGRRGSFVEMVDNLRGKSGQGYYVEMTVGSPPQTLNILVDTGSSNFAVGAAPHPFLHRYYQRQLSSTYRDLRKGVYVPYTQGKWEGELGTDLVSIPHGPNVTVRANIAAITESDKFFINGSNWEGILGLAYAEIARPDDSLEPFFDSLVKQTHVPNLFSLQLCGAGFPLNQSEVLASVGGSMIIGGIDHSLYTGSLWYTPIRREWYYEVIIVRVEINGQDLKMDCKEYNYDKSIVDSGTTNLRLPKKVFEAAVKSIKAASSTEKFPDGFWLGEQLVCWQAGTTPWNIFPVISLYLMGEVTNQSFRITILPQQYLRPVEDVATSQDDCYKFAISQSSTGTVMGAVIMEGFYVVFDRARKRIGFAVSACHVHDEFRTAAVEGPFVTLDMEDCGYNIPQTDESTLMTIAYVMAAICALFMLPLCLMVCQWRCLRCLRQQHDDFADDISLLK

Take `CCCOc1ccc2c(c1)[C@@H]1C[C@H]2OCC=CCCCC(=O)N[C@@H](Cc2cc(F)cc(F)c2)[C@H](O)CN1`: in data set [1] (from C=CCCCC(=O)N[C@@H](Cc1cc(F)cc(F)c1)[C@H](O)CN[C@H]1C[C@@H](OCC=C)c2ccc(OCCC)cc21, 16-membered ring, Hoveyda-Grubbs II, DCM, 25.0 °C, 16.0 h), the ring closure, yield after HPLC came to 20%.

Usually IC50 stands for the midpoint of a concentration-inhibition curve. As for `CC(C)(C)OC(=O)N1CC2CN(c3ccc4c(c3)[C@@H]3C[C@H]4OCC=CCCCC(=O)N[C@@H](Cc4cc(F)cc(F)c4)[C@H](O)CN3)CC2C1` (stereo partly drawn) [Example 96, 5-[(1S,4R,5S,15R)-5-(3,5-difluoro-benzyl)-4-hydroxy-7-oxo-14-oxa-2,6-diaza-tricyclo[13.6.1.0^16,21]docosa-11,16(21),17,19-tetraen-19-yl]-hexahydro-pyrrolo[3,4-c]pyrrole-2-carboxylic acid tert-butyl ester], in data set [2], the IC50 lay in the range of 10 to 500 nM.

Turning to `CCCC[C@H](C)C(=O)N(C)[C@H]1CC=CCO[C@@H]2C[C@H](NC[C@@H](O)[C@H](Cc3ccccc3)NC1=O)c1cc(C)cc(C)c12` [Example 100, (S)-2-methyl-hexanoic acid ((1S,4R,5S,8S,14R)-5-benzyl-4-hydroxy-16,18-dimethyl-7-oxo-13-oxa-2,6-diaza-tricyclo[12.6.1.0^15,20]henicosa-10,15(20),16,18-tetraen-8-yl)-methyl-amide], in data set [2], the IC50 is under 10 nM.

As to `CCCC(CCC)C(=O)N(C)[C@H]1CC=CCO[C@@H]2C[C@H](NC[C@@H](O)[C@H](Cc3ccccc3)NC1=O)c1cc(OC)ccc12`, the ring closure, yield after HPLC in data set [1] (from C=CCO[C@@H]1C[C@H](NC[C@@H](O)[C@H](Cc2ccccc2)NC(=O)[C@H](CC=C)N(C)C(=O)C(CCC)CCC)c2cc(OC)ccc21, 15-membered ring, Hoveyda-Grubbs II (9 mol%), DCM, 25.0 °C, 16.0 h) is 34%.

As to `CCCCCS(=O)(=O)N(C)[C@H]1CC=CCO[C@@H]2C[C@H](NC[C@@H](O)[C@H](Cc3cc(Cl)cc(Cl)c3)NC1=O)c1cc(OC)ccc12` [Example 43], the IC50 in data set [2] is under 10 nM.

For the compound `CCCC[C@H](C)C(=O)N(C)[C@H]1CC=CCOc2ccc(OC)cc2CNC[C@@H](O)[C@H](Cc2ccccc2)NC1=O` [Example 59, (S)-N-((6S,9S,10R)-9-benzyl-10-hydroxy-15-methoxy-7-oxo-2,5,6,7,8,9,10,11,12,13-decahydrobenzo[b][1,5,9]oxadiazacyclopentadecin-6-yl)-N,2-dimethylhexanamide], the IC50 in data set [2] was over 500 nM. The compound also showed a ring closure, yield after HPLC in data set [1] (from C=CCOc1ccc(OC)cc1CNC[C@@H](O)[C@H](Cc1ccccc1)NC(=O)[C@H](CC=C)N(C)C(=O)[C@@H](C)CCCC, 15-membered ring, Hoveyda-Grubbs II (21 mol%), DCM, 4.3 mM, 40.0 °C, 4.0 h) of 49%.

As for `COc1ccc2c(c1)[C@@H]1C[C@H]2OCC=CCC[C@H](N(C)S(=O)(=O)CCC(F)(F)F)C(=O)N[C@@H](CC(C)C)[C@H](O)CN1` [Example 70, 3,3,3-trifluoro-propane-1-sulfonic acid ((1S,4R,5S,8S,15R)-4-hydroxy-5-isobutyl-19-methoxy-7-oxo-14-oxa-2,6-diaza-tricyclo[13.6.1.0^16,21]docosa-11,16(21),17,19-tetraen-8-yl)-methyl-amide], in data set [2], the IC50 is under 10 nM.

For `COc1ccc2c(c1)[C@@H]1C[C@H]2OCC=CC[C@H](N(C)C(=O)C(C)CC(F)(F)F)C(=O)N[C@@H](Cc2cc(F)cc(F)c2)[C@H](O)CN1` (single isomer, unassigned; diastereomer a) [Example 21], in data set [2], the IC50 was under 10 nM.

For `CCCC[C@H](C)C(=O)N(C)[C@H]1CC=CCO[C@H]2CC[C@H](C2)NC[C@@H](O)[C@H](Cc2cc(F)cc(F)c2)NC1=O` (racemic) [Example 25, (S)-2-methyl-hexanoic acid [(1R,4R,5S,8S,14S)-5-(3,5-difluoro-benzyl)-4-hydroxy-7-oxo-13-oxa-2,6-diaza-bicyclo[12.2.1]heptadec-10-en-8-yl]-methyl-amide and (S)-2-methyl-hexanoic acid [(1S,4R,5S,8S,14R)-5-(3,5-difluoro-benzyl)-4-hydroxy-7-oxo-13-oxa-2,6-diaza-bicyclo[12.2.1]heptadec-10-en-8-yl]-methyl-amide], the IC50 in data set [2] was 10 to 500 nM.

For the compound `CCCCCS(=O)(=O)N(C)[C@H]1CC=CCCCc2ccc(C)cc2CNC[C@@H](O)[C@H](Cc2cc(F)cc(F)c2)NC1=O`, in data set [3], the ring closure, isolated yield came to 18%.

Turning to `CCCCCS(=O)(=O)N(C)[C@H]1CCCCO[C@H]2Cc3ccc(OC)cc3[C@H]2NC[C@@H](O)[C@H](Cc2ccccc2)NC1=O` [Example 29, pentane-1-sulfonic acid ((1S,7S,10S,11R,14R)-10-benzyl-11-hydroxy-17-methoxy-8-oxo-2-oxa-9,13-diaza-tricyclo[12.7.0.0^15,20]henicosa-15(20),16,18-trien-7-yl)-methyl-amide], the IC50 in data set [2] lay in the range of 10 to 500 nM.

Consider `COc1ccc2c(c1)[C@@H]1CC2N(C(=O)OCc2ccccc2)CCC=CC[C@H](N(C)C(C)=O)C(=O)N[C@@H](Cc2ccccc2)[C@H](O)CN1`, for which, in data set [1] (from C=CCCN(C(=O)OCc1ccccc1)C1C[C@H](NC[C@@H](O)[C@H](Cc2ccccc2)NC(=O)[C@H](CC=C)N(C)C(C)=O)c2cc(OC)ccc21, 16-membered ring), the ring closure, yield after HPLC was 83%.

Turning to `CCCCCS(=O)(=O)N(C)[C@H]1CC=CCO[C@@H]2Cc3ccc(OC)cc3[C@H]2NC[C@@H](O)[C@H](Cc2ccccc2)NC1=O` (racemic) [Example 26, pentane-1-sulfonic acid ((1R,7S,10S,11R,14R)-10-benzyl-11-hydroxy-17-methoxy-8-oxo-2-oxa-9,13-diaza-tricyclo[12.7.0.0^15,20]henicosa-4,15(20),16,18-tetraen-7-yl)-methyl-amide and pentane-1-sulfonic acid ((1S,7S,10S,11R,14S)-10-benzyl-11-hydroxy-17-methoxy-8-oxo-2-oxa-9,13-diaza-tricyclo[12.7.0.0^15,20]henicosa-4,15(20),16,18-tetraen-7-yl)-methyl-amide], the IC50 in data set [2] was over 500 nM.

Consider `CN([C@H]1CCC=CCO[C@@H]2C[C@H](NC[C@@H](O)[C@H](Cc3ccccc3)NC1=O)c1cc(Br)ccc12)S(=O)(=O)CCC(F)(F)F` [Example 61, 3,3,3-trifluoro-propane-1-sulfonic acid ((1S,4R,5S,8S,15R)-5-benzyl-19-bromo-4-hydroxy-7-oxo-14-oxa-2,6-diaza-tricyclo[13.6.1.0^16,21]docosa-11,16(21),17,19-tetraen-8-yl)-methyl-amide], for which, in data set [2], the concentration for half-maximal inhibition (IC50) is under 10 nM.

As to `COc1ccc2c(c1)[C@@H]1C[C@H]2COCC=CC[C@H](N(C)S(=O)(=O)CCC(F)(F)F)C(=O)N[C@@H](Cc2ccccc2)[C@H](O)CN1` (single isomer, unassigned; isomer a) [Example 35], the IC50 in data set [2] is under 10 nM.

Regarding `CCCC[C@H](C)C(=O)N(C)[C@H]1CCCCO[C@@H]2C[C@H](NC[C@@H](O)[C@H](Cc3cc(Cl)cc(Cl)c3)NC1=O)c1cc(OC)ccc12` [Example 49, (S)-2-methyl-hexanoic acid ((1S,4R,5S,8S,14R)-5-(3,5-dichloro-benzyl)-4-hydroxy-18-methoxy-7-oxo-13-oxa-2,6-diaza-tricyclo[12.6.1.0^15,20]henicosa-15(20),16,18-trien-8-yl)-methyl-amide], the IC50 in data set [2] was under 10 nM.
